From patent US9546173B2 (Novartis AG, priority 2012, dated 2017)

Target: activated ERK2 (Homo sapiens (Human), UniProt P28482)
Assay: Activated ERK2 kinase assay (AlphaScreen, ERKtide peptide phosphorylation)
Assay type: biochemical
Conditions: […] ERK2, 200 nM ERKtide peptide, 35 μM ATP, 30 min preincubation; read-out: ERK2 IC50

Sequence of activated ERK2 (P28482 whole entry): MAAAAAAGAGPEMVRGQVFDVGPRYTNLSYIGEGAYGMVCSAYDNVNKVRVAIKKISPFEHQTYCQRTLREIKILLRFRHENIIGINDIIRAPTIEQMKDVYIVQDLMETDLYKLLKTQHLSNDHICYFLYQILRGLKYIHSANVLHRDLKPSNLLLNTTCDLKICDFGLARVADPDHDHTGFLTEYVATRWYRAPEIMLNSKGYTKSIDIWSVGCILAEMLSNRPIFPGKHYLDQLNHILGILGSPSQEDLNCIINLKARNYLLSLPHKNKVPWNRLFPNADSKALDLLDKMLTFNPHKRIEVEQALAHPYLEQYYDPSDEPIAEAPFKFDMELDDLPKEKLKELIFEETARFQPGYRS

Structure (SMILES) | IC50 [nM]
CC1(CO)c2cnc(NC3CCOCC3)nc2CN1C(=O)NCc1ccccc1 (stereo not shown) [compound 90, N-benzyl-5-(hydroxymethyl)-5-methyl-2-((tetrahydro-2H-pyran-4-yl)amino)-5H-pyrrolo[3,4-d]pyrimidine-6(7H)-carboxamide] | 4020
C[C@@H](NC(=O)N1Cc2nc(NC3CCOCC3)ncc2C1(C)CO)c1ccccc1 (stereo partly drawn) [compound 91, 5-(hydroxymethyl)-5-methyl-N-((R)-1-phenylethyl)-2-((tetrahydro-2H-pyran-4-yl)amino)-5H-pyrrolo[3,4-d]pyrimidine-6(7H)-carboxamide] | 657
C[C@@H](NC(=O)N1Cc2nc(NC3CCOCC3)ncc2C1(C)CO)c1ccccc1 (stereo partly drawn) [compound 92, 5-(hydroxymethyl)-5-methyl-N-((R)-1-phenylethyl)-2-((tetrahydro-2H-pyran-4-yl)amino)-5H-pyrrolo[3,4-d]pyrimidine-6(7H)-carboxamide] | 1530
O=C(NCCc1ccccc1)N1Cc2nc(NC3CCOCC3)ncc2C12CCC2 [compound 96, N-phenethyl-2′-((tetrahydro-2H-pyran-4-yl)amino)spiro[cyclobutane-1,5′-pyrrolo[3,4-d]pyrimidine]-6′(7′H)-carboxamide] | 90
O=C(Nc1cnn(Cc2ccccc2F)c1)N1Cc2nc(NC3CCOCC3)ncc2C12CCC2 [compound 99, N-(1-(2-fluorobenzyl)-1H-pyrazol-4-yl)-2′-((tetrahydro-2H-pyran-4-yl)amino)spiro[cyclobutane-1,5′-pyrrolo[3,4-d]pyrimidine]-6′(7′H)-carboxamide] | 12
CNC(=O)c1cccc(CNC(=O)N2Cc3nc(NC4CCOCC4)ncc3C2(C)C)c1 [compound 100, 5,5-dimethyl-N-(3-(methylcarbamoyl)benzyl)-2-((tetrahydro-2H-pyran-4-yl)amino)-5H-pyrrolo[3,4-d]pyrimidine-6(7H)-carboxamide] | 45
CN(C)C(=O)c1cccc(CNC(=O)N2Cc3nc(NC4CCOCC4)ncc3C2(C)C)c1 [compound 101, N-(3-(dimethylcarbamoyl)benzyl)-5,5-dimethyl-2-((tetrahydro-2H-pyran-4-yl)amino)-5H-pyrrolo[3,4-d]pyrimidine-6(7H)-carboxamide] | 492
CNC(=O)C1CC(NC(=O)N2Cc3nc(NC4CCOCC4)ncc3C2(C)C)CN(Cc2ccccc2F)C1 (stereo not shown) [compound 102, N-(1-(2-fluorobenzyl)-5-(methylcarbamoyl)piperidin-3-yl)-5,5-dimethyl-2-((tetrahydro-2H-pyran-4-yl)amino)-5H-pyrrolo[3,4-d]pyrimidine-6(7H)-carboxamide] | 2300
CNC(=O)C1CC(NC(=O)N2Cc3nc(NC4CCOCC4)ncc3C2(C)C)CN(Cc2cccc(Cl)c2)C1 (stereo not shown) [compound 103, N-(1-(3-chlorobenzyl)-5-(methylcarbamoyl)piperidin-3-yl)-5,5-dimethyl-2-((tetrahydro-2H-pyran-4-yl)amino)-5H-pyrrolo[3,4-d]pyrimidine-6(7H)-carboxamide] | 9190
CC1(C)c2cnc(NC3CCOCC3)nc2CN1C(=O)N[C@@H]1CCN(Cc2cccc(Cl)c2)C1 [compound 104] | 37
CC1(C)c2cnc(NC3CCOCC3)nc2CN1C(=O)Nc1cnn(Cc2ccccc2F)c1 [compound 105, N-(1-(2-fluorobenzyl)-1H-pyrazol-4-yl)-5,5-dimethyl-2-((tetrahydro-2H-pyran-4-yl)amino)-5H-pyrrolo[3,4-d]pyrimidine-6(7H)-carboxamide] | 39
CC1(C)c2cnc(NC3CCOCC3)nc2CN1C(=O)NCc1cc(F)cc(S(C)(=O)=O)c1 [compound 107, N-(3-fluoro-5-(methylsulfonyl)benzyl)-5,5-dimethyl-2-((tetrahydro-2H-pyran-4-yl)amino)-5H-pyrrolo[3,4-d]pyrimidine-6(7H)-carboxamide] | 44
CC1(C)c2cnc(NC3CCOCC3)nc2CN1C(=O)NCc1ccc(S(C)(=O)=O)cc1 [compound 108, 5,5-dimethyl-N-(4-(methylsulfonyl)benzyl)-2-((tetrahydro-2H-pyran-4-yl)amino)-5H-pyrrolo[3,4-d]pyrimidine-6(7H)-carboxamide] | 65
CC1(C)c2cnc(NC3CCOCC3)nc2CN1C(=O)NCc1cc(Cl)cc(S(C)(=O)=O)c1 [compound 109, N-(3-chloro-5-(methylsulfonyl)benzyl)-5,5-dimethyl-2-((tetrahydro-2H-pyran-4-yl)amino)-5H-pyrrolo[3,4-d]pyrimidine-6(7H)-carboxamide] | 6

More lines, now with the values ahead:

IC50 [nM] | Structure (SMILES)
39 | CCCS(=O)(=O)c1cccc(CNC(=O)N2Cc3nc(NC4CCOCC4)ncc3C2(C)C)c1 [compound 110, 5,5-dimethyl-N-(3-(propylsulfonyl)benzyl)-2-((tetrahydro-2H-pyran-4-yl)amino)-5H-pyrrolo[3,4-d]pyrimidine-6(7H)-carboxamide]
16 | CCS(=O)(=O)c1cccc(CNC(=O)N2Cc3nc(NC4CCOCC4)ncc3C2(C)C)c1 [compound 111, N-(3-(ethylsulfonyl)benzyl)-5,5-dimethyl-2-((tetrahydro-2H-pyran-4-yl)amino)-5H-pyrrolo[3,4-d]pyrimidine-6(7H)-carboxamide]
806 | CC1(C)c2cnc(NC3CCOCC3)nc2CN1C(=O)NCc1ccccc1S(C)(=O)=O [compound 112, 5,5-dimethyl-N-(2-(methylsulfonyl)benzyl)-2-((tetrahydro-2H-pyran-4-yl)amino)-5H-pyrrolo[3,4-d]pyrimidine-6(7H)-carboxamide]
45 | Cc1cccc(S(=O)(=O)N2CCC[C@@H](NC(=O)N3Cc4nc(NC5CCOCC5)ncc4C3(C)C)C2)c1 [compound 113, (R)-5,5-dimethyl-2-((tetrahydro-2H-pyran-4-yl)amino)-N-(1-(m-tolylsulfonyl)piperidin-3-yl)-5H-pyrrolo[3,4-d]pyrimidine-6(7H)-carboxamide]
176 | Cc1ccc(S(=O)(=O)N2CCC[C@@H](NC(=O)N3Cc4nc(NC5CCOCC5)ncc4C3(C)C)C2)cc1 [compound 114, (R)-5,5-dimethyl-2-((tetrahydro-2H-pyran-4-yl)amino)-N-(1-tosylpiperidin-3-yl)-5H-pyrrolo[3,4-d]pyrimidine-6(7H)-carboxamide]
2 | C[C@@H](NC(=O)N1Cc2nc(NC3CCOCC3)ncc2C1(C)C)c1cc(F)cc(S(C)(=O)=O)c1 [compound 115, (R)-N-(1-(3-fluoro-5-(methylsulfonyl)phenyl)ethyl)-5,5-dimethyl-2-((tetrahydro-2H-pyran-4-yl)amino)-5H-pyrrolo[3,4-d]pyrimidine-6(7H)-carboxamide]
457 | C[C@H](NC(=O)N1Cc2nc(NC3CCOCC3)ncc2C1(C)C)c1cc(F)cc(S(C)(=O)=O)c1 [compound 116, (S)-N-(1-(3-fluoro-5-(methylsulfonyl)phenyl)ethyl)-5,5-dimethyl-2-((tetrahydro-2H-pyran-4-yl)amino)-5H-pyrrolo[3,4-d]pyrimidine-6(7H)-carboxamide]
7 | CC1(C)c2cnc(NC3CCOCC3)nc2CN1C(=O)N[C@H](CO)c1cccc(S(C)(=O)=O)c1 [compound 117, (S)-N-(2-hydroxy-1-(3-(methylsulfonyl)phenyl)ethyl)-5,5-dimethyl-2-((tetrahydro-2H-pyran-4-yl)amino)-5H-pyrrolo[3,4-d]pyrimidine-6(7H)-carboxamide]
